According to PubChem BioAssay (NCI):
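Results reflect a 48-hour exposure of cells in 96-well plates to compound at five concentrations. Here, GI50 denotes the concentration required for 50% inhibition of growth. Definition used: TGI = concentration required for complete inhibition of growth.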

What was measured:
Experiment in all cases: NCI tumour cell line growth inhibition, 48 h
786-0 renal = tested on: 786-0 renal
A498 renal = tested on: A498 renal
A549 NSCLC = tested on: A549 NSCLC
BT-549 breast = tested on: BT-549 breast
CAKI-1 renal = tested on: CAKI-1 renal
CCRF-CEM leukemia = tested on: CCRF-CEM leukemia
COLO 205 colon = tested on: COLO 205 colon
DU-145 prostate = tested on: DU-145 prostate
EKVX NSCLC = tested on: EKVX NSCLC
HCC-2998 colon = tested on: HCC-2998 colon
HCT-116 colon = tested on: HCT-116 colon
HCT-15 colon = tested on: HCT-15 colon
HL-60(TB) leukemia = tested on: HL-60(TB) leukemia
HOP-62 NSCLC = tested on: HOP-62 NSCLC
HOP-92 NSCLC = tested on: HOP-92 NSCLC
HS 578T breast = tested on: HS 578T breast
HT29 colon = tested on: HT29 colon
IGROV1 ovarian = tested on: IGROV1 ovarian
K-562 leukemia = tested on: K-562 leukemia
KM12 colon = tested on: KM12 colon
LOX IMVI melanoma = tested on: LOX IMVI melanoma
M14 melanoma = tested on: M14 melanoma
MALME-3M melanoma = tested on: MALME-3M melanoma
MCF7 breast = tested on: MCF7 breast
MDA-MB-231 breast = tested on: MDA-MB-231 breast
MDA-MB-435 = tested on: MDA-MB-435
MOLT-4 leukemia = tested on: MOLT-4 leukemia
NCI-H460 lung = tested on: NCI-H460 lung
NCI-H522 lung = tested on: NCI-H522 lung
NCI/ADR-RES ovarian = tested on: NCI/ADR-RES ovarian
OVCAR-3 ovarian = tested on: OVCAR-3 ovarian
OVCAR-4 ovarian = tested on: OVCAR-4 ovarian
OVCAR-5 ovarian = tested on: OVCAR-5 ovarian
OVCAR-8 ovarian = tested on: OVCAR-8 ovarian
PC-3 prostate = tested on: PC-3 prostate
RPMI-8226 leukemia = tested on: RPMI-8226 leukemia
RXF 393 renal = tested on: RXF 393 renal
SF-268 CNS = tested on: SF-268 CNS
SF-295 CNS = tested on: SF-295 CNS
SF-539 CNS = tested on: SF-539 CNS
SK-MEL-2 melanoma = tested on: SK-MEL-2 melanoma
SK-MEL-28 melanoma = tested on: SK-MEL-28 melanoma
SK-MEL-5 melanoma = tested on: SK-MEL-5 melanoma
SN12C renal = tested on: SN12C renal
SNB-19 CNS = tested on: SNB-19 CNS
SNB-75 CNS = tested on: SNB-75 CNS
SR leukemia = tested on: SR leukemia
SW-620 colon = tested on: SW-620 colon
T-47D breast = tested on: T-47D breast
TK-10 renal = tested on: TK-10 renal
U251 CNS = tested on: U251 CNS
UACC-257 melanoma = tested on: UACC-257 melanoma
UACC-62 melanoma = tested on: UACC-62 melanoma
UO-31 renal = tested on: UO-31 renal

Q: Which results are given for `CC1=C2C(=C[C@@](C)(COC(=O)c3ccc(S(=O)(=O)F)cc3)[C@@H]2OC(=O)c2ccc(S(=O)(=O)F)cc2)C(=O)[C@](C)(O)C12CC2`?
A: GI50 (786-0 renal): 1400 nM; TGI (786-0 renal): 4680 nM; GI50 (A498 renal): 1820 nM; TGI (A498 renal): 4290 nM; GI50 (A549 NSCLC): 3040 nM; TGI (A549 NSCLC): 9270 nM; GI50 (BT-549 breast): 1260 nM; TGI (BT-549 breast): 3010 nM; GI50 (CAKI-1 renal): 466 nM; TGI (CAKI-1 renal): 10800 nM; GI50 (CCRF-CEM leukemia): 2280 nM; TGI (CCRF-CEM leukemia): 15300 nM; GI50 (COLO 205 colon): 638 nM; TGI (COLO 205 colon): 2250 nM; GI50 (DU-145 prostate): 373 nM; TGI (DU-145 prostate): 5480 nM; GI50 (EKVX NSCLC): 3040 nM; TGI (EKVX NSCLC): 9330 nM; GI50 (HCC-2998 colon): 1310 nM; TGI (HCC-2998 colon): 3060 nM; GI50 (HCT-116 colon): 319 nM; TGI (HCT-116 colon): 1920 nM; GI50 (HCT-15 colon): 439 nM; TGI (HCT-15 colon): 4420 nM; GI50 (HL-60(TB) leukemia): 433 nM; TGI (HL-60(TB) leukemia): 3140 nM; GI50 (HOP-62 NSCLC): 1460 nM; TGI (HOP-62 NSCLC): 5880 nM; GI50 (HOP-92 NSCLC): 2110 nM; TGI (HOP-92 NSCLC): 5620 nM; GI50 (HS 578T breast): 2370 nM; TGI (HS 578T breast): 6630 nM; GI50 (HT29 colon): 406 nM; TGI (HT29 colon): 6400 nM; GI50 (IGROV1 ovarian): 478 nM; TGI (IGROV1 ovarian): 6420 nM; GI50 (K-562 leukemia): 733 nM; TGI (K-562 leukemia): 13000 nM; GI50 (KM12 colon): 2950 nM; TGI (KM12 colon): 12700 nM; GI50 (LOX IMVI melanoma): 1150 nM; TGI (LOX IMVI melanoma): 6380 nM; GI50 (M14 melanoma): 1360 nM; TGI (M14 melanoma): 3320 nM; GI50 (MALME-3M melanoma): 1160 nM; TGI (MALME-3M melanoma): 2940 nM; GI50 (MCF7 breast): 342 nM; TGI (MCF7 breast): 3960 nM; GI50 (MDA-MB-231 breast): 1540 nM; TGI (MDA-MB-231 breast): 7410 nM; GI50 (MDA-MB-435): 1480 nM; TGI (MDA-MB-435): 3710 nM; GI50 (MOLT-4 leukemia): 1010 nM; TGI (MOLT-4 leukemia): 8730 nM; GI50 (NCI-H460 lung): 206 nM; TGI (NCI-H460 lung): 480 nM; GI50 (NCI-H522 lung): 474 nM; TGI (NCI-H522 lung): 2100 nM; GI50 (NCI/ADR-RES ovarian): 698 nM; TGI (NCI/ADR-RES ovarian): 9630 nM; GI50 (OVCAR-3 ovarian): 549 nM; TGI (OVCAR-3 ovarian): 3900 nM; GI50 (OVCAR-4 ovarian): 1780 nM; TGI (OVCAR-4 ovarian): 7510 nM; GI50 (OVCAR-5 ovarian): 558 nM; TGI (OVCAR-5 ovarian): 4330 nM; GI50 (OVCAR-8 ovarian): 631 nM; TGI (OVCAR-8 ovarian): 4010 nM; GI50 (PC-3 prostate): 1070 nM; TGI (PC-3 prostate): 11300 nM; GI50 (RPMI-8226 leukemia): 3340 nM; TGI (RPMI-8226 leukemia): 17500 nM; GI50 (RXF 393 renal): 337 nM; TGI (RXF 393 renal): 965 nM; GI50 (SF-268 CNS): 705 nM; TGI (SF-268 CNS): 9100 nM; GI50 (SF-295 CNS): 2400 nM; TGI (SF-295 CNS): 7630 nM; GI50 (SF-539 CNS): 1560 nM; TGI (SF-539 CNS): 3960 nM; GI50 (SK-MEL-2 melanoma): 1760 nM; TGI (SK-MEL-2 melanoma): 3410 nM; GI50 (SK-MEL-28 melanoma): 1710 nM; TGI (SK-MEL-28 melanoma): 3880 nM; GI50 (SK-MEL-5 melanoma): 1480 nM; TGI (SK-MEL-5 melanoma): 2920 nM; GI50 (SN12C renal): 1730 nM; TGI (SN12C renal): 11500 nM; GI50 (SNB-19 CNS): 2540 nM; TGI (SNB-19 CNS): 14200 nM; GI50 (SNB-75 CNS): 1350 nM; TGI (SNB-75 CNS): 2660 nM; GI50 (SR leukemia): 480 nM; TGI (SR leukemia): 10200 nM; GI50 (SW-620 colon): 607 nM; TGI (SW-620 colon): 10200 nM; GI50 (T-47D breast): 1230 nM; TGI (T-47D breast): 4500 nM; GI50 (TK-10 renal): 2750 nM; TGI (TK-10 renal): 6870 nM; GI50 (U251 CNS): 1620 nM; TGI (U251 CNS): 5420 nM; GI50 (UACC-257 melanoma): 1880 nM; TGI (UACC-257 melanoma): 3690 nM; GI50 (UACC-62 melanoma): 1640 nM; TGI (UACC-62 melanoma): 4000 nM; GI50 (UO-31 renal): 815 nM; TGI (UO-31 renal): 3220 nM
